A word on the viability: it is the share of living cells, or the viability signal relative to a control.

The test system of data set [1] is HeLa, HEK293, PC-12 and SH-SY5Y cells.
Data set [2] can be described thus: Membrane leakage (liposome calcein dye-release) experiments. The data set is classed as biochemical. Particulars: for maximum leakage (calcein release): 5, 20, 50 μM peptide, up to 30 hours; for liposome integrity / dye release: FIG. 8. Here is the method: Calcein-containing LUVs were prepared as described previously (19), with minor modifications. 1-palmitoyl-2-oleoyl-sn-glycero-3-phosphocholine (POPC) and 1-palmitoyl-2-oleoyl-sn glycero-3-phospho-L-glycerol (POPG) were obtained from Avanti Polar Lipids (Alabaster, Ala.). Mixtures of POPC and POPG in a 7:3 molar ratio were dissolved in 1:1 chloroform:methanol. The solvent was evaporated under dry nitrogen gas to yield a lipid film that was further dried under vacuum for at least 24 hours to remove any residual organic solvent. The film was then hydrated in 70 mM calcein (Sigma Aldrich, St. Louis, Mo.) and 10 mM Tris-HCl (pH 7.4) at a lipid concentration of 5 mM. The suspensions were subjected to 10 freeze-thaw cycles of temperatures of −80 and 50° C., followed by extrusion through two 0.2 μm pore size filters (Whatman, Florham Park, N.J.). Non-encapsulated calcein was separated from calcein-filled LUVs by size exclusion using a Sephadex G-75 (GE Healthcare, Piscataway, N.J.) equilibrated in buffer (10 mM Tris-HCl pH 7.4, 100 mM sodium chloride). The calcein-containing LUVs were concentrated to 3-5 mM and stored at 4° C. Phospholipid content and concentrations of the LUVs were determined by RP-HPLC using 100% Methanol and 100 mM TEAC (tetraethylammonium chloride) pH 7.8 as the solvent and a C18 column. Diameter of LUVs were determined using a Microtrac UPA 150 (York, Pa.). […] LUVs were used for experiments within 5 days of preparation.
Pure, lyophilized K11V-TR and K11VV2L-TR peptides were solubilized in water. Three different stock solutions were made at concentrations of 0.2, 0.8, and 2 mM. 5 uL of each peptide stock solution was added to a well containing 195 uL of 7:3 calcein-containing POPC:POPG LUVs in a buffer (10 mM Tris-HCL pH 7.4, 100 mM sodium chloride). Dye leakage was measured using a SpectraMax5 (Molecular Devices, Sunnyvale, Calif.) at 485 nm excitation and a 535 nm emission. Measurements were taken every 10 minutes for 30 hours. Each well contains a final LUV concentration of 100 μM with final K11V-TR and K11VV2L-TR construct concentrations of 5, 20, and 50 μM. Synthetic human Islet Amyloid Polypeptide (hIAPP) residues 8-37, purchased from CS-Bio (Menlo Park, Calif.), was used as a positive control; since hIAPP has been previously shown to interact and disrupt membranes (15, 16). Lyophilized hIAPP was dissolved in 100% hexafluoro-2-propanol (HFIP) and put under vacuum to evaporate the HFIP. hIAPP was then reconstituted in water at 0.2 mM, filtered using a 0.2 μm filter, and added to six wells containing 100 μM Calcein-containing LUVs to a final concentration of 5 μM hIAPP. Fluorescence at a given time point was normalized as described previously (20), using the equation: Fnormalized=(Ft−Fmin)/(Fmax−Fmin) Ft is the measured fluorescence intensity, Fmin the fluorescence of 100 μM calcein-containing LUVs alone, and Fmax is the maximum fluorescence determined by incubation of 100 μM LUVs in the presence of 0.5% Triton X-100.

For another data set, the system named is polyclonal antibody A11. Description: Immuno-dot blot with oligomer-specific antibody A11. The data set is classed as binding. Here is the method:
(§1) Briefly, a small aliquot of cylindrin peptide samples, at a concentration of a few mg/mL, were spotted onto a nitrocellulose membrane (Trans-Blot, Bio-Rad, Hercules, Calif.). After blocking with 10% fat free milk in TBST buffer (50 mM Tris, 150 mM NaCl, 0.05% Tween20), the membranes were incubated with polyclonal antibody or monoclonal antibody (˜1:250 dilution in 5% fat free milk, TBST buffer) at room temperature for 1 hour. The membranes were washed three times in TBST buffer before incubating with anti-rabbit HRP-linked antibody (1:5000 dilution in 5% fat free milk, TBST buffer) (Invitrogen, Carlsbad, Calif.) at room temperature for 1 hour. After washing the membranes three times in TBST buffer, the films were developed following the protocol as described in the Kit (Thermo Scientific Pierce ECL Western Blotting Substrate, #32209). Positive controls for A11 and OC were prefibrillar oligomers and fibrils, respectively (14).

Data set [3] concerns Hela; ES derived motor neurons (GFP+). The data set is described as follows: Toxicity assay of SOD1 cylindrins (MTT, visual inspection of GFP+ neuron morphologies). The data set is classed as cell-based.
A short description of a further data set: in vitro. The conditions noted are these: human (HeLa, HEK293, SH-SY5Y); rat (PC-12).
A further data set relates to OC antibody. Description: Immuno-dot blot with fibril-specific antibodies OC. It counts as binding. Here is the method: as §1
Data set [4] concerns the molecule itself. Description: native nanoelectrospray mass spectrometry; self-association of identical chains. Here is the method:
The cylindrin peptide abbreviation (see Table 1) is labeled for the respective mass spectrum in the upper right corner of the inset. (A) Mass spectrum of cylindrin peptide, K11VV2L dissolved directly in 200 mM ammonium acetate buffer. Expansion of the hexameric oligomers with n-1 and n-2 dissociation products (see for review (13)), shown in inset. […] The n-1 (pentamer) and n-2 (tetramer) dissociated species are located under the respective label, corresponding to ions with +4 and +3 charge states, respectively. The 1231.76 ion corresponds to the K11VV2L peptide chain with a +1 charge state. (B) Native mass spectrum of K11V-TR purified by size exclusion chromatography (see methods for details). […] The labeled +2 and +6 charge state ions correspond to one and four peptide chains, respectively. […]
One to five milligrams of lyophilized peptide was dissolved in 1 mL of water and filtered through a 0.22 or 0.45 μm Centrex MF filter (Whatman, Florham Park, N.J.). […] Absorbance at 220 nm and 280 nm were recorded using a Waters 2487 dual λ absorbance detector (Waters, Milford, Mass.). Protein standards were monitored by absorbance at 280 nm, and cylindrin peptides monitored by absorbance at 220 nm.

Data set [5] concerns the molecule itself. The data set is described as follows: X-ray crystal structure; self-association of identical chains. How it is done: The SOD1-derived peptide […] (SEQ ID NO:61) was crystallized and data collection was performed as follows: The peptide was crystallized via hanging-drop vapor diffusion at 18° C. The peptide was dissolved at 50 mg/mL in 50 mM Tris, then was mixed 1:1 with the reservoir solution: 0.2M Na Citrate pH 5, 13% PEG 6000. The peptide grew into needle-shaped crystals in 2-3 days. For data collection, hundreds of crystals were mounted because of their quick decay. However, two larger crystals were able to be used to collect complete data sets, by diffracting from several points along the length of the crystals. Diffraction from iodine-soaked crystals was used to obtain phases by SIRAS.

Read-outs that look alike come from different tables or passages of the source. Where no end group is shown, it is not given here.

“GKLKVLGDVIEVGGKLKVLGDVIEV [Peptide K11V-TR, tandem repeat of K11VV2L, double glycine linker, additional N-terminal glycine]”: the cell toxicity entry in data set [1] (different peptide concentrations, HEK293, HeLa, PC12, SH-SY5Y, FIG. 7) is “concentration dependent cell toxicity”. Further, the “cell toxicity (cell viability)” value in data set [1] (final concentration 100 μM, four mammalian cell lines, FIG. 1F) is given as “toxic”. The “maximum leakage (calcein release)” value in data set [2] (100 μM LUVs) is recorded as 10%. Also, the “liposome integrity / dye release” value in data set [2] is “did not exhibit this trend”. Besides, the “recognition by A11 antibody” value in the data set on polyclonal antibody A11 is on record as “recognized by A11”.
On to KVKVWGSIGKL [KVKVWGSIKGL], for which the “toxicity to cultured cells” value in data set [3] (peptide (cylindrin)) is “toxic”; in data set [3] (peptide amyloid-like fibrils), “non-toxic”.
As to “GKVKVLGDVIEVGGKVKVLGDVIEV [K11V-TR (wild-type)]”, the “maximum leakage (calcein release)” value in data set [2] (100 μM LUVs) is given as 10%.
As for “cylindrin: six-stranded anti-parallel barrel oligomer of K11V (KVKVLGDVIEV)”, in the data set on polyclonal antibody A11, the “recognition by A11 antibody” value was “recognizes”.
The molecule “H-GKLKWLGDVIEVGGKLKWLGDVIEV-OH [Peptide K11VV4W-TR]” returned a viability at 24 h, 100 µM in the data set “in vitro” of roughly 100%.
Take “hIAPP8-37: Synthetic human Islet Amyloid Polypeptide residues 8-37, positive control (ATQRLANFLVHSSNNFGAILSSTNVGSNTY; ends and bridges not checked; UniProt P10997 41-70, looked up, fragment) [reference compound]”: in data set [2] (5 μM positive control, 100 μM LUVs), the “leakage (calcein release)” value is “up to 60%”. In addition, the “liposome integrity / dye release” value in data set [2] was “clearly diminished liposome integrity leading to dye release”.
For the molecule GDVIEV [G6V fibrils], the toxicity of fibrils result in data set [1] (fibrils, in contrast to oligomeric solutions) is “no toxicity”.
Take KLKVLGDVIEV [Peptide K11VV2L]: the “recognition by A11 antibody” value with polyclonal antibody A11 was “recognized by A11”.
Consider “GKLKVLGDVIEVGGKLKVLGDVIEV [K11V-TR fibrils] (not fully specified)”, for which the “recognition by A11 antibody” value with polyclonal antibody A11 was “recognized only by the OC antibody”. Moreover, the “recognition by OC antibody” value in the data set with OC antibody is reported as “recognized only by the OC antibody”; with OC antibody (listed as fibrils of K11V-TR), “immunoreactive”.

B1: K11V-TR tandem repeat cylindrin peptide (tandem repeat of K11VV2L), oligomeric solution (peptide)
peptide: GKLKVLGDVIEVGGKLKVLGDVIEV
notes: Trimer of 25-residue chains (SEC, native MS, crystal structure 3SGR); also called K11VV2L-TR; tandem repeat segment
B1: the binding result in data set [4] is on record as “binds”.

B2: SOD1-derived peptide KVKVWGSIKGL, SOD1(29-39) P29K (peptide)
peptide: KVKVWGSIKGL
notes: Open-ended oligomer (corkscrew), 16 strands per turn, any number of peptide units; also called SOD1 cylindrin; kv11
Turning to B2, the binding result in data set [5] is “binds”.

B3: K11VV2L cylindrin peptide (KLKVLGDVIEV), oligomeric solution (peptide)
peptide: KLKVLGDVIEV
notes: Forms hexameric oligomers (native MS, crystal structure 3SGP); also called single segment; alphaB crystallin residues 90-100 mutant V91L
In the case of B3, the binding result in data set [4] is given as “binds”.

The record behind these values is US20150307573A1, “CYLINDRINS AS ETIOLOGIC AGENTS OF AMYLOID DISEASES” (The Regents of the University of California, priority 2012, published 2015).
